Non-standard residues stand in square brackets, D forms with d. Residues, ends and D or L forms follow the SMILES beside them.
Tests used:
[1] = Rotarod test of motor coordination; format: in vivo, mice; conditions: for motor coordination (rotarod), overall: doses of Table 2: D-JNKI i.p. and icv, MK-801 1 mg/Kg i.p.
Description: Typically, the high toxicity of other neuroprotective compounds has severely limited their clinical use. (See Gladstone et al., Stroke, 33:2123-36 (2002), incorporated by reference in its entirety). The ability of mice to maintain themselves on horizontal turning rotarod was used as criterion for possible side effects of different doses of D-JNKI and of a therapeutic dose of MK-801 (1 mg/Kg, a standard therapeutic dose). […] (11 and 110 mg/Kg) and icv injections of D-JNKI (2 μl containing 15.7 ng or 157 ng of D-JNKI). The i.p. injection of MK-801 (1 mg/Kg) was used as a control compound during this assessment procedure.
The mice were trained the day before and in the morning of the experimental day, in order to reduce the variability between subjects. Both training and test sessions were identical for control and injected mice. […] The mice were placed on the rotarod, which was programmed to accelerate uniformly from 4 to 40 rpm. The latency to falls for each mouse tested was recorded. The results of this assessment using the rotarod method are presented in Table 2 as median latency to fall (measured in seconds).

[2] = Systolic and diastolic blood pressure after D-JNKI injection; format: in vivo, mice; conditions: 10 minutes before until 30 minutes after injection
Text: Using male ICR-CD1 mice (approximately 6 weeks old and weighing in the range of about 18 to 37 g) (Harlan, Inc.), ischemia was provoked by introducing a filament from the common carotid artery into the internal carotid artery and advancing the filament into the arterial circle, thereby occluding the middle cerebral artery. See, e.g., Huang et al., Science, 265:1883-85 (1994); Hara et al., Proc. Natl. Acad. Sci. (USA) 94:2007-12 (1997); each of which is hereby incorporated by reference in its entirety. Regional cerebral blood flow was measured by laser-Doppler flowmetry with a probe fixed on the skull throughout the ischemia and until 10 minutes after reperfusion. Rectal temperature was measured and maintained at 37° C. The animals were sacrificed 48 hours after reperfusion. Serial cryostat sections […] were traced using a computer-microscope system equipped with the Neurolucida program (Microbrightfield, Inc.), and the volumes of the ischemic area and of the whole brain were calculated (blind) with the Neuroexplorer program. Systolic and diastolic blood pressure were measured with an arterial catheter in three additional mice from 10 minutes before the D-JNKI injection until 30 minutes afterwards. […] The Guidelines of the Swiss Federal Veterinary Office were followed in all experiments.

pKC = test: Kinase specificity assay; format: biochemical; conditions: 500 μM, substrate histone
Description: (§1) Cellular extracts were prepared by scraping cells in lysis buffer (20 mM Tris-acetate, 1 mM EGTA, 1% Triton X-100, 10 mM p-nitrophenyl-phosphate, 5 mM sodium pyrophosphate, 10 mM β-glycerophosphate, 1 mM dithiothreitol). 25 μg samples were incubated for 1 hour at room temperature with 1 μg GST-c-Jun (amino acid residues 1-89) and 10 μL glutathione-agarose beads (Sigma). The beads were washed four times and then resuspended in the lysis buffer described above. In vitro kinase assays were then performed using recombinant JNK1α1 and 0.5 μg of a substrate selected from the group consisting of GST-fusion proteins (e.g., GST-Jun and GST-Elk1 fusion proteins), casein and histone (Sigma). Reactions were initiated with 10 mM MgCl2 and 10 μM ATP in the presence of 5 μCi ^33P-ATP, and were incubated for 30 minutes at 30° C. The reaction products were separated by SDS-PAGE, and the gels were dried and then exposed to X-ray films (Kodak).
In vitro experiments were performed to determine the specificity of the JNKI peptides in blocking JNK activation. In particular, the effect of these peptides on the activity of 40 different kinases (10 μM peptides, 10 μM ATP) towards their respective substrates was tested. The complete list of substrates used in these experiments can be found on the world wide web at www.upstate.com/img/pdf/KinaseProfiler.pdf. […]

ERK2 = ERK2 (Homo sapiens, UniProt P28482); test: Kinase specificity assay; format: biochemical; conditions: 500 μM
Description: as §1
(§2) In vitro experiments were performed to determine the specificity of the JNKI peptides in blocking JNK activation. […] The complete list of substrates used in these experiments can be found on the world wide web at www.upstate.com/img/pdf/KinaseProfiler.pdf. […] The substrates for these kinases are ERK2:ERK1; p38:ATF2; p34, pKC, pKA:histone; and caK:caseine. […] For a discussion of other small chemical inhibitors of the Jun N-terminal kinase (JNK), See Bennett et al., Proc. Natl. Acad. Sci. (USA), 98:13681-86 (2001), hereby incorporated by reference in its entirety.

p34 = p34 (Homo sapiens, UniProt P06493); test: Kinase specificity assay; format: biochemical; conditions: 500 μM, substrate histone
Description: as §1, §2

p38 = p38 (Homo sapiens, UniProt Q16539); test: Kinase specificity assay; format: biochemical; conditions: 500 μM, substrate ATF2
Description: as §1, §2

caK = test: Kinase specificity assay; format: biochemical; conditions: 500 μM, substrate caseine
Description: as §1, §2

recombinant JNK1α1 = recombinant JNK1α1 (Homo sapiens, UniProt P45983); test: In vitro kinase assay with recombinant JNK1α1; format: biochemical
Description: as §1
The terms “P-Jun” and “P-Elk1,” as used herein, refer to the radiolabeled (i.e., phosphorylated with ^33P-ATP) forms of GST-Jun and GST-Elk1 substrates, respectively.

JNK = conditions: JBDs of IB1 and IB2; cited from earlier work
βTC-3 cell cultures = test: Cellular import of fluorescein-labeled peptides; format: cell-based; conditions: 1 μM, βTC-3 cells
Description: The ability of the L- and D-enantiomeric forms of TAT, TAT-IB1 and TAT-IB2 peptides (“TAT-IB peptides”) to enter cells were evaluated.
Labeled peptides (1 μM) were added to βTC-3 cell cultures, which were maintained as described in Example 3. At predetermined times, cells were washed with PBS and fixed for five minutes in ice-cold methanol-acetone (1:1) before being examined under a fluorescence microscope. Fluorescein-labeled BSA (1 μM, 12 moles/mole BSA) was used as a control.

Chain of recombinant JNK1α1 (P45983 1-384 isoform P45983-2, species assumed): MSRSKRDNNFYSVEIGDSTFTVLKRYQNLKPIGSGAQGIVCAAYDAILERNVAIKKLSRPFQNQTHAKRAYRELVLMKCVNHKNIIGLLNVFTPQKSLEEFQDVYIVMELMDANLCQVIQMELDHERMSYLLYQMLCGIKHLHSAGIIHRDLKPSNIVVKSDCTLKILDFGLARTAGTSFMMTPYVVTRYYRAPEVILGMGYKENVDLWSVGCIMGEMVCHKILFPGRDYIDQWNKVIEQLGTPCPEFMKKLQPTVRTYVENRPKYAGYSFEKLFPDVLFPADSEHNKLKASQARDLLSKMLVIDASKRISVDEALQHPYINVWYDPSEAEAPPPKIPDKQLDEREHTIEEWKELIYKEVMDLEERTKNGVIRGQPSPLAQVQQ
Chain of p34 (P06493 whole entry): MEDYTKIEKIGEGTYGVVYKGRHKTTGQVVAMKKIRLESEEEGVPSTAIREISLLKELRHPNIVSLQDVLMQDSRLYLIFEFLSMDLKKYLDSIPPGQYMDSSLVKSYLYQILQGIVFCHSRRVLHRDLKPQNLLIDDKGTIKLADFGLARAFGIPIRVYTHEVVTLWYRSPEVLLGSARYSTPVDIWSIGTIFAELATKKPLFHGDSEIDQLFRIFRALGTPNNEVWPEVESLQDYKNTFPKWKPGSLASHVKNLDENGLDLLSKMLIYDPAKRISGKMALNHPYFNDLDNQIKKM
Chain of p38 (Q16539 whole entry): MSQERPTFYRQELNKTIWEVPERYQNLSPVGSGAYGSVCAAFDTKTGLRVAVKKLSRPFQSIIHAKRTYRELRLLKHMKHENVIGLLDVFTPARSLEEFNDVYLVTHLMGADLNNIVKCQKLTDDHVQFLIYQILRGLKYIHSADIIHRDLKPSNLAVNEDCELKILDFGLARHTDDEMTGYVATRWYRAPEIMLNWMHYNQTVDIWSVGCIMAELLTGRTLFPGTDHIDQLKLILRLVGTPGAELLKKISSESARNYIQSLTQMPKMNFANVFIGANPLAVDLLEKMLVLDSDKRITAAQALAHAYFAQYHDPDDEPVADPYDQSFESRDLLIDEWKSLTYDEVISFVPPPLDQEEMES
Chain of ERK2 (P28482 whole entry, species assumed): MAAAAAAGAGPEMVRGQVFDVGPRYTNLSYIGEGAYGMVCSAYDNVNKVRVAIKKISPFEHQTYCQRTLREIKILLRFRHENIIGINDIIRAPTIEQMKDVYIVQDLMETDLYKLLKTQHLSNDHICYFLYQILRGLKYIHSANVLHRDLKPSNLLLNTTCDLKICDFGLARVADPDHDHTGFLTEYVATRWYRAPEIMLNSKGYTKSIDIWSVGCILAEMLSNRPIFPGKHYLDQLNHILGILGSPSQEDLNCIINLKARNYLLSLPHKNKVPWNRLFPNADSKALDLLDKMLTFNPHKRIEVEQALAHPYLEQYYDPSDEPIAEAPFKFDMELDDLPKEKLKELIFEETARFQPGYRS

Molecule: CC(C)C[C@@H](NC(=O)[C@@H](Cc1ccccc1)NC(=O)[C@H]1CCCN1C(=O)[C@@H](CCC(N)=O)NC(=O)[C@H](NC(=O)[C@H]1CCCN1C(=O)[C@@H](CCCNC(=N)N)NC(=O)[C@@H](CO)NC(=O)[C@@H](CCC(N)=O)NC(=O)[C@@H](CC(=O)O)NC(=O)[C@H](N)[C@H](C)O)C(C)C)C(=O)N[C@H](CC(N)=O)C(=O)N[C@H](CC(C)C)C(=O)N[C@@H](C(=O)N[C@@H](C(=O)N1CCC[C@@H]1C(=O)N[C@H](CCCNC(=N)N)C(=O)N[C@H](CCCCN)C(=O)N1CCC[C@@H]1C(=O)N[C@H](CCCNC(=N)N)C(=O)N1CCC[C@@H]1C(=O)N1CCC[C@@H]1C(=O)N[C@H](CCCNC(=N)N)C(=O)N[C@H](CCCNC(=N)N)C(=O)N[C@H](CCCNC(=N)N)C(=O)N[C@H](CCC(N)=O)C(=O)N[C@H](CCCNC(=N)N)C(=O)N[C@H](CCCNC(=N)N)C(=O)N[C@H](CCCCN)C(=O)N[C@H](CCCCN)C(=O)N[C@H](CCCNC(=N)N)C(=O)NCC(=O)O)[C@H](C)O)[C@H](C)O [D-JNKI, TDQSRPVQPF LNLTTPRKPR PPRRRQR RKKRG] (H-[dT][dD][dQ][dS][dR][dP][dV][dQ][dP][dF][dL][dN][dL][dT][dT][dP][dR][dK][dP][dR][dP][dP][dR][dR][dR][dQ][dR][dR][dK][dK][dR]G-OH)
- Median Latency to Fall ([1]; 15.7 ng icv, 1 day): 302 s
- Median Latency to Fall ([1]; 15.7 ng icv, 6 days): 345 s
- Median Latency to Fall ([1]; 15.7 ng icv, 12 days): 285 s
- Median Latency to Fall ([1]; 15.7 ng icv, +3 hours): 342 s
- Median Latency to Fall ([1]; 15.7 ng icv, −1 hour): 210 s
- Median Latency to Fall ([1]; 157 ng icv, 1 day): 253 s
- Median Latency to Fall ([1]; 157 ng icv, 6 days): 338 s
- Median Latency to Fall ([1]; 157 ng icv, 12 days): 335 s
- Median Latency to Fall ([1]; 157 ng icv, +3 hours): 200 s
- Median Latency to Fall ([1]; 157 ng icv, −1 hour): 260 s
- Median Latency to Fall ([1]; 11 mg/Kg i.p., 1 day): 372 s
- Median Latency to Fall ([1]; 11 mg/Kg i.p., 6 days): 287 s
- Median Latency to Fall ([1]; 11 mg/Kg i.p., 12 days): 418 s
- Median Latency to Fall ([1]; 11 mg/Kg i.p., +3 hours): 221 s
- Median Latency to Fall ([1]; 11 mg/Kg i.p., −1 hour): 204 s
- Median Latency to Fall ([1]; 110 mg/Kg i.p., 1 day): 447 s
- Median Latency to Fall ([1]; 110 mg/Kg i.p., 6 days): 416 s
- Median Latency to Fall ([1]; 110 mg/Kg i.p., 12 days): 325 s
- Median Latency to Fall ([1]; 110 mg/Kg i.p., +3 hours): 266 s
- Median Latency to Fall ([1]; 110 mg/Kg i.p., −1 hour): 276 s
- motor impairment ([1]; at 6 and 15 days following treatment): no sign of motor impairment
- motor coordination (rotarod), overall [1]: unimpaired
- change of blood pressure [2]: less than 10%

Molecule: CC(C)C[C@H](NC(=O)[C@H](CC(N)=O)NC(=O)[C@H](CC(C)C)NC(=O)[C@@H](NC(=O)[C@@H](NC(=O)[C@@H]1CCCN1C(=O)[C@H](CCCNC(=N)N)NC(=O)[C@H](CCCCN)NC(=O)[C@@H]1CCCN1C(=O)[C@@H](N)CCCNC(=N)N)[C@@H](C)O)[C@@H](C)O)C(=O)N[C@@H](Cc1ccccc1)C(=O)N1CCC[C@H]1C(=O)N[C@@H](CCC(N)=O)C(=O)N[C@H](C(=O)N1CCC[C@H]1C(=O)N[C@@H](CCCNC(=N)N)C(=O)N[C@@H](CO)C(=O)N[C@@H](CCC(N)=O)C(=O)N[C@@H](CC(=O)O)C(=O)N[C@H](C(=O)O)[C@@H](C)O)C(C)C [L-JBD20, RPKRPTTLNL FPQVPRSQDT] (H-RPKRPTTLNLFPQVPRSQDT-OH)
- interference with activity of pKC (pKC): did not interfere with the activity
- interference with activity of ERK2 (ERK2): did not interfere with the activity
- interference with activity of p34 (p34): did not interfere with the activity
- interference with activity of p38 (p38): did not interfere with the activity
- interference with activity of caK (caK): did not interfere with the activity
- IC50 (recombinant JNK1α1; JNK targets ATF2, IRS-1, MADD, bcl-xl, each case, data not shown): ~1000 nM
- inhibition of JNK action without the TAT sequence (recombinant JNK1α1; dose response): can inhibit JNK action

Molecule: N=C(N)NCCC[C@H](NC(=O)[C@H](CCCNC(=N)N)NC(=O)[C@H](CCCNC(=N)N)NC(=O)[C@H](CCC(N)=O)NC(=O)[C@H](CCCNC(=N)N)NC(=O)[C@H](CCCNC(=N)N)NC(=O)[C@H](CCCCN)NC(=O)[C@H](CCCCN)NC(=O)[C@H](CCCNC(=N)N)NC(=O)CN)C(=O)O [L-TAT, reference compound]
- concentration at which the TAT sequence induces nonspecific precipitation of the proteins in the extracts (recombinant JNK1α1): greater than 50 μM

Molecule: C[C@]12N[C@H](Cc3ccccc31)c1ccccc12 [MK-801, reference compound]
- Median Latency to Fall ([1]; 1 mg/Kg i.p., 1 day): 174 s
- Median Latency to Fall ([1]; 1 mg/Kg i.p., 6 days): 233 s
- Median Latency to Fall ([1]; 1 mg/Kg i.p., 12 days): 292 s
- Median Latency to Fall ([1]; 1 mg/Kg i.p., +3 hours): incapable
- Median Latency to Fall ([1]; 1 mg/Kg i.p., −1 hour): 226 s
- lethality ([1]; 10-fold higher dose of MK-801): killed all the mice
- motor coordination (rotarod), overall [1]: dramatic impairment of motor coordination
- time after which side effects essentially disappear ([1]; lower dose of MK-801 (1 mg/Kg i.p.)): 24 h

Molecule: IPSPSVEEPHKHRPTTLRLTTLGAQDS (IPSPSVEEPHKHRPTTLRLTTLGAQDS) [IB2-long]
- efficiency in binding JNK relative to c-Jun or ATF2 (JNK): approximately 100 fold

Molecule: PGTGCGDTYRPKRPTTLNLFPQVPRSQDT (PGTGCGDTYRPKRPTTLNLFPQVPRSQDT) [IB1-long]
- efficiency in binding JNK relative to c-Jun or ATF2 (JNK): approximately 100 fold

Molecule: fluorescein labeled bovine serum albumin: fluorescein labeled BSA (12 moles fluorescein/mole BSA) used as a control
- entry into cells (βTC-3 cell cultures): did not enter the cells
